From patent US12473310B2, “Vitamin D3 phosphate and pharmaceutically acceptable salts thereof, pharmaceutical compositions comprising the compound and methods for preparing the compound” (King's College London, priority 2020, dated 2025)
Structures can show the parent of a compound that is named as a salt.

Key:
[1] = solubility of disodium salt in water by HPLC; assay type: physicochemical; settings: thermodynamic from solid, distilled water
Protocol: Cholecalciferol phosphate disodium salt was added into 1.5 mL distilled water until it generated precipitation. The supersaturated solution was filtered into a glass bottle through a 0.45 μm syringe filter, diluted in water (1:100), then MeOH was added to make MeOH:water (90:10), and injected into the HPLC.

physchem = assay type: physicochemical; settings: 22 °C, organic solvent or mixture, thermodynamic from solid, HPLC
Protocol: An aliquot of 2.5 mg cholecalciferol and 2.5 mg cholecalciferol phosphate disodium salt prepared according to Example 1 were weighed into glass vials and 100 μL aliquots of the test solvents with different dielectric constants; water, MeOH:water (90:10), ethylene glycol, methanol (MeOH), propylene glycol (PG), ethanol (EtOH), poly(ethylene glycol) (PEG-400), and mineral oil were added until the sample was fully dissolved visually. A precise determination of the solubility was undertaken using high-performance liquid chromatography (HPLC). In the HPLC solubility studies an excess amount of cholecalciferol and cholecalciferol phosphate was added into 2 mL of each test solvent; water, MeOH:water (90:10), MeOH, and PG, EtOH and mineral oil. The solutions were left stirring overnight at room temperature, (RT), 22° C. The saturation of the solutions was confirmed by the visual appearance of crystals and the drug suspensions were filtered through 0.2 μm syringe filters, diluted, and the concentration of each sample was assessed using the HPLC method detailed below.
HPLC analysis was conducted using an HPLC system consisting of an auto-sample injector (Jasco AS-4050, Japan), a pump (Jasco PU-4180, Japan), and a photodiode array detector (Jasco MD-4017, Japan). The data was collected and analysed using the ChromNAV software. […]

[2] = chemical stability on storage over 4 weeks; assay type: physicochemical
Protocol: The chemical stability of cholecalciferol phosphate acid/disodium salt was assessed in three different conditions over a 4-week period. Aliquots of 2 mg for each sample was stored at room temperature, 4° C., and −20° C. in a glass bottle covered with foil. A 20 mL sample of MeOH and MeOH:water (90:10) was added to cholecalciferol phosphate acid and cholecalciferol phosphate disodium salt, and the concentration and purity were assessed every week by the HPLC method described previously. The peak area was used to calculate sample concentration and the gradient of the data points being used to calculate the degradation rate.

[3] = design: species or system porcine
Protocol: To verify the percentage of drug that could be recovered from each layer of the skin, each layer was isolated for a 2.19±0.21 cm^2 piece of skin, the drug was spiked into each layer, it was incubated and then recovered. For the SC tape stripping as described above was used to isolate the skin layer. A total of 20 pieces of tape were used to remove the SC and these strips were added into sample bottles. The epidermis was removed from the dermis, cut into small pieces, and placed into bottles. The test solutions were spiked (500 μL) into a sample bottle containing the SC and (200 μL) into the sample bottles containing the epidermis and dermis. The samples containing the spiked drugs were left for 1 h for the drugs to absorb into the tissues. After the 1 h incubation period, 10 mL of extraction fluid (PG:EtOH, 50:50 for cholecalciferol and MeOH:water, 90:10 for cholecalciferol phosphate) was added into SC, and 2 mL of extraction fluid was added into epidermis and dermis then incubated in a shaking water bath overnight at 32° C. The solutions with both epidermis and dermis were then homogenised by Ultra Turrax for 1 min and filtered using 0.2 μm syringe filters and analysed by HPLC method.

SMILES | solubility [1] [mg/mL] | solubility (physchem) [mg/mL] | change of purity over 4 weeks ([2]; all storage conditions) | degradation over 4 weeks ([2]; room temperature, 4° C. and −20° C.) | % Recovery, drug extraction validation, Epidermis [3] [%]
C=C1CC[C@H](OP(=O)(O)O)C/C1=C/C=C1\CCC[C@@]2(C)C1CC[C@@H]2[C@H](C)CCCC(C)C (some centres unmarked) [Cholecalciferol phosphate disodium salt, cholecalciferol phosphate disodium salt] | 78.7 | 3.7 | less than 1% | did not degrade at any of the storage conditions | –
C=C1CC[C@H](O)C/C1=C/C=C1\CCC[C@]2(C)[C@@H]([C@H](C)CCCC(C)C)CC[C@@H]12 [Cholecalciferol, cholecalciferol, reference compound] | – | – | – | – | 104.86 ± 0.54
